# The supplement of paper PMC7108870
# Experiments:
# HEK293sieSTAT3(Y640F) [1] = assay: drug sensitivity score (DSS), viability CellTiter-Glo (DSS (dimensionless)); higher = more growth inhibition; extreme values may be limits of the assay; settings: 72 h; STAT3 variant: Y640F (constitutively active)
# Method in brief: (§1)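 For 72 hours at 37°C and 5% CO2, HEK293 cells overexpressing wild-type or mutant STAT3 and carrying a STAT3-dependent luciferase reporter were cultured on compounds at 5 concentrations in 10-fold dilutions. CellTox Green and then CellTiter-Glo signals were read, normalised to negative and positive control wells, and converted in Breeze into a drug sensitivity score based on dose-response curve area. Values are from one representative of two experiments.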
# HEK293sieSTAT3(wt) [2] = assay: as above; settings: 72 h; STAT3 variant: wild type
# Method in brief: as §1
# HEK293sieSTAT3(Y640F) [3] = assay: drug sensitivity score (DSS), cytotoxicity CellTox Green (DSS (dimensionless)); higher = more cytotoxic; extreme values may be limits of the assay; settings: 72 h; STAT3 variant: Y640F (constitutively active)
# Method in brief: as §1
# HEK293sieSTAT3(wt) [4] = assay: as above; settings: 72 h; STAT3 variant: wild type
# Method in brief: as §1
SMILES,drug sensitivity score (HEK293sieSTAT3(Y640F) [1]),drug sensitivity score (HEK293sieSTAT3(wt) [2]),drug sensitivity score (HEK293sieSTAT3(Y640F) [3]),drug sensitivity score (HEK293sieSTAT3(wt) [4])
CC[C@H](CC#N)OC(=O)N[C@@H](C)c1cccc(NC(=O)Nc2ccc(-c3cnco3)c(OC)c2)c1 [AVN944] (top concentration tested 10000 nM),17.1,20.7,1.07,6.87
CC1(COc2ccc3c(c2)ncn3-c2ccc3cccc(N4CCC(N)CC4)c3n2)COC1 [Crenolanib] (top concentration tested 10000 nM),9.27,11.9,8.74,11
S=P(N1CC1)(N1CC1)N1CC1 [Thio-TEPA] (top concentration tested 50000 nM),0.14,0.48,0,0
Cn1ncc(Cl)c1-c1cc(C(=O)N[C@H](CN)Cc2ccc(F)c(F)c2)oc1Cl [Uprosertib] (top concentration tested 10000 nM),12.7,15.3,0,0
CO[C@H]1C[C@@H]2CC[C@@H](C)[C@@](O)(O2)C(=O)C(=O)N2CCCC[C@H]2C(=O)O[C@H]([C@H](C)C[C@@H]2CC[C@@H](OC(=O)C(C)(CO)CO)[C@H](OC)C2)CC(=O)[C@H](C)/C=C(\C)[C@@H](O)[C@@H](OC)C(=O)[C@H](C)C[C@H](C)/C=C/C=C/C=C/1C [Temsirolimus] (top concentration tested 100 nM),11.2,17.6,0,0
COc1ccccc1S(=O)(=O)Nc1ccc2c(c1)CN(C)C(=O)N2 [PFI-1] (top concentration tested 10000 nM),5.5,5.96,0.33,6.8
O=C(CCBr)N1CCN(C(=O)CCBr)CC1 [Pipobroman] (top concentration tested 10000 nM),6.86,1.43,0,0
CC(C)n1nc(-c2ccc3oc(N)nc3c2)c2c(N)ncnc21 [MLN-0128] (top concentration tested 1000 nM),15,18.7,0,1.73
Cc1cc(C(C)Nc2ccccc2)c2nc(N3CCOCC3)cc(=O)n2c1 (stereo unspecified) [TGX-221] (top concentration tested 10000 nM),0.57,0,0,0
NC(=O)NO [Hydroxyurea] (top concentration tested 100000 nM),4.19,1.75,0,0
Cn1cc(C[C@@H](N)C(=O)O)c2ccccc21 [1-methyl-D-tryptophan] (top concentration tested 5000 nM),0,0,0,0
CNc1nc(-c2ccc3c(N)n[nH]c3c2)cc(N2C[C@@H](C(=O)NC3CCCCC3)CC[C@H]2C)n1 (top concentration tested 10000 nM),1.37,4.33,0.35,0
Cc1cc(C)c(/C=C2\C(=O)Nc3ccccc32)[nH]1 [Semaxanib] (top concentration tested 10000 nM),0,2.08,3.22,8.57
CC(C)[C@H]1C(=O)N[C@@H](CCCNC(=N)N)C(=O)NCC(=O)N[C@@H](CC(=O)O)C(=O)N[C@H](Cc2ccccc2)C(=O)N1C [Cilengitide] (top concentration tested 10000 nM),0,0,0,0
COCC[n+]1c2c(n(Cc3cnccn3)c1C)C(=O)c1ccccc1C2=O [YM155] (top concentration tested 10000 nM),30.4,34.7,12.8,27.5
CC(C)c1cc(C(=O)N2Cc3ccc(CN4CCN(C)CC4)cc3C2)c(O)cc1O [Onalespib] (top concentration tested 2500 nM),20.9,24.5,7.91,18.9
C[C@@H]1CCN(C(=O)CC#N)C[C@@H]1N(C)c1ncnc2[nH]ccc12 [Tofacitinib] (top concentration tested 5000 nM),0.07,0,0,0
Cc1nc(-c2cn3c(n2)-c2ccc(-c4cnn(C(C)(C)C(N)=O)c4)cc2OCC3)n(C(C)C)n1 [Taselisib] (top concentration tested 1000 nM),4.03,5.32,0,0.54
O=C(NOC[C@H](O)CO)c1ccc(F)c(F)c1Nc1ccc(I)cc1F (top concentration tested 1000 nM),0,0,0,0
CCNc1nc(Nc2cc(F)c(C(=O)N3CCOCC3)cc2OC)ncc1C(F)(F)F [GNE-7915] (top concentration tested 1000 nM),4.87,2.71,0,0
CNC(=O)c1ccc(N2C(=S)N(c3ccc(C#N)c(C(F)(F)F)c3)C(=O)C23CCC3)cc1F [RD162] (top concentration tested 10000 nM),2.62,1.68,0,0.2
CN(C)C[C@@H]1CCn2cc(c3ccccc32)C2=C(C(=O)NC2=O)c2cn(c3ccccc23)CCO1 [Ruboxistaurin] (top concentration tested 10000 nM),9,8.97,6.6,6.85

SMILES,drug sensitivity score (HEK293sieSTAT3(Y640F) [1]),drug sensitivity score (HEK293sieSTAT3(wt) [2]),drug sensitivity score (HEK293sieSTAT3(Y640F) [3]),drug sensitivity score (HEK293sieSTAT3(wt) [4])
CN(C)Cc1ccc(S(=O)(=O)n2ccc(/C=C/C(=O)NO)c2)cc1 [Resminostat] (top concentration tested 10000 nM),11.5,12.3,5.95,6.75
Cc1c(Cn2c(C)nc3c(C(=O)O)cc(N4CCOCC4)cc32)cccc1C(F)(F)F (top concentration tested 10000 nM),0.96,3,0,0.07
CCS(=O)(=O)N1CCN(c2ccc(Nc3ncc(C(N)=O)c(NC4CC4)n3)cc2)CC1 [Cerdulatinib] (top concentration tested 10000 nM),6.32,9.09,0.63,7.28
Nc1ncn([C@H]2C[C@H](O)[C@@H](CO)O2)c(=O)n1 [Decitabine] (top concentration tested 10000 nM),7.35,10.4,0.02,3.31
CCC1=C[C@@H]2CN(C1)Cc1c([nH]c3ccccc13)[C@@](C(=O)OC)(c1cc3c(cc1OC)N(C)[C@H]1[C@@](O)(C(=O)OC)[C@H](OC(C)=O)[C@]4(CC)C=CCN5CC[C@]31[C@@H]54)C2 [Vinorelbine] (top concentration tested 10000 nM),30.6,34,5.27,19.2
N#Cc1ccc2[nH]c(O)c(-c3ccc(CN4CCOCC4)cn3)c2c1 [AZD-1080] (top concentration tested 10000 nM),1.14,0.74,0,2.84
Cc1cc(-c2ncc(-c3cccnc3)cc2/C=C/c2ccccc2)cnc1-c1cccnc1 [Pyridoclax] (top concentration tested 25000 nM),12.2,10.1,1.38,5.06
CN1CCN(c2ccc3nc(-c4c(N)c5c(F)cccc5[nH]c4=O)[nH]c3c2)CC1 [Dovitinib] (top concentration tested 10000 nM),0.03,0,0,0
COC(=O)N[C@@H](C)CNc1nccc(-c2cn(C(C)C)nc2-c2cc(Cl)cc(NS(C)(=O)=O)c2F)n1 [Encorafenib] (top concentration tested 1000 nM),0.92,3.05,0,0
C=CCc1cccc(/C=N/NC(=O)CN2CCN(Cc3ccccc3)CC2)c1O [PAC-1] (top concentration tested 10000 nM),4.7,7.56,0,3.52
COc1cc(C(=O)O)ccc1NC(=O)[C@@H]1N[C@@H](CC(C)(C)C)[C@](C#N)(c2ccc(Cl)cc2F)[C@H]1c1cccc(Cl)c1F [Idasanutlin] (top concentration tested 10000 nM),4.92,3.61,0.11,0
CNNCc1ccc(C(=O)NC(C)C)cc1 [Procarbazine] (top concentration tested 10000 nM),0,0,0,0
NCC(=O)Nc1ccc(-n2nc(C(F)(F)F)cc2-c2ccc3c(ccc4ccccc43)c2)cc1 (top concentration tested 25000 nM),13.5,16.3,5.9,7.25
O=C(/C=C\n1cnc(-c2cc(C(F)(F)F)cc(C(F)(F)F)c2)n1)NNc1cnccn1 [Selinexor] (top concentration tested 10000 nM),26.9,30.8,14.5,26.4
CCN(CC)CCOc1ccc(C(=C(Cl)c2ccccc2)c2ccccc2)cc1 [Clomifene] (top concentration tested 10000 nM),5.14,7.15,6.99,7.9
N#Cc1ccc(C(c2ccc(C#N)cc2)n2cncn2)cc1 [Letrozole] (top concentration tested 10000 nM),4.14,0.66,0,0.02
CCN1CCN(Cc2ccc(-c3cc4c(N[C@H](C)c5ccccc5)ncnc4[nH]3)cc2)CC1 [NVP-AEE788] (top concentration tested 2500 nM),1.43,1.25,0,0.32
N#CC(c1ccnc(OCc2ccc(CN3CCOCC3)cc2)n1)c1nc2ccccc2s1 (stereo unspecified) [Bentamapimod] (top concentration tested 10000 nM),5.3,8.85,0.96,0
CC(=O)Nc1cccc(-n2c(=O)n(C3CC3)c(=O)c3c(Nc4ccc(I)cc4F)n(C)c(=O)c(C)c32)c1 [Trametinib] (top concentration tested 250 nM),0,0,1.69,0
Cc1[nH]c(/C=C2\C(=O)Nc3ccccc32)c(C)c1CCC(=O)O [Orantinib] (top concentration tested 10000 nM),1.85,1.33,18.4,21.6
CC(=O)[C@]1(O)Cc2c(O)c3c(c(O)c2[C@@H](O[C@H]2C[C@H](N)[C@H](O)[C@H](C)O2)C1)C(=O)c1ccccc1C3=O [Idarubicin] (top concentration tested 1000 nM),27.1,26.9,7.05,10.7
CC(C)n1cnc2c(NCCc3ccc(O)cc3)nc(-c3csc4ccccc34)nc21 [StemRegenin 1] (top concentration tested 10000 nM),3.04,5.04,0.52,5.48
